According to patent US9765037B2, “Compositions and methods for treating toxoplasmosis, cryptosporidiosis, and other apicomplexan protozoan related diseases” (University of Washington Through its Center for …, priority 2010, dated 2017):
Values after ≈ are worked out from the molar mass of the structure shown. Where two headings read alike, the source gives them in different places.

What was measured:
[1] = target: AblKD (Homo sapiens (Human), UniProt P00519); assay: Tyrosine kinase IC50, AblKD; type: biochemical; details: Table 9
[2] = system: human lymphocyte (CRL8155); assay: Growth inhibition of human cell line CRL8155
[3] = system: human promyelocytic leukemia (HL-60); assay: Growth inhibition of human cell line HL-60
[4] = system: glioma derived (SF539); assay: Growth inhibition of human cell line SF539
[5] = target: CpCDPK1 (Cryptosporidium parvum (strain Iowa II), UniProt A3FQ16); assay: biochemical; type: biochemical
[6] = system: colorectal carcinoma (HC 2998); assay: Growth inhibition of human cell line HC 2998
[7] = target: HckKD (Homo sapiens (Human), UniProt P08631); assay: Tyrosine kinase IC50, HckKD; type: biochemical; details: Table 9
[8] = target: PfCDPK4 (Plasmodium falciparum (isolate 3D7), UniProt Q8IBS5); assay: biochemical
[9] = Blood levels after oral gavage dosing of mice (LC-MS); details: mouse, in vivo, po
[10] = target: PfCDPK1 (Plasmodium falciparum (isolate 3D7), UniProt P62344); assay: biochemical
[11] = in vivo; details: mouse, ip
[12] = target: SrcKD (Homo sapiens (Human), UniProt P12931); assay: Tyrosine kinase IC50, SrcKD; type: biochemical; details: Table 9
[13] = Solubility in buffers of various pH; type: physicochemical; details: buffer
[14] = system: human fibroblast; assay: Human fibroblast replication / cytotoxicity (Alamar blue); type: cell-based
[15] = system: C. parvum; assay: Immunosuppressed (SCID-beige) mouse C. parvum model; type: in vivo, Cryptosporidium parvum; details: SCID-beige mice; oral gavage once a day, days 3-7 and 10-14; 29 and 150 at 50 mg/kg/day, Paromomycin 2 g/kg/day
Experimental: Shown are mean of the parasite numbers detected in 25 mg of stool from each mouse, by qRT-PCR.

[16] = Table 8, read-out: IC50 (μM) CpCDPK1
[17] = aqueous buffer, pH 2.0, read-out: Experimental Solubility pH 2.0
[18] = pH 6.5, aqueous buffer, read-out: Experimental Solubility pH 6.5
[19] = pH 7.4, aqueous buffer, read-out: Experimental Solubility pH 7.4

| Compound | IC50 [1] [µM] | Cell Toxicity CRL8155, % at 10 μM [2] [% at 10 μM] | Cell Toxicity HL60, % at 10 μM [3] [% at 10 μM] | Cell Toxicity SF539, % at 10 μM [4] [% at 10 μM] | Cell Toxicity HCC2998, % at 10 μM [6] [% at 10 μM] | EC50 [8] [nM] | EC50 [10] [nM] | solubility [13, 18] [µM] | Observed HFF Toxicity (T at concentration) [14] | other results |
| --- | --- | --- | --- | --- | --- | --- | --- | --- | --- | --- |
| CC(C)(C)n1nc(Cc2cccc3ccccc23)c2c(N)ncnc21 [Compound 5d, 1-tert-butyl-3-(naphthalen-1-ylmethyl)-1H-pyrazolo[3,4-d]pyrimidin-4-amine] | 7.7 | <30 | <30 | <30 | <30 |  |  |  |  | GI50 ([2]; read-out: GI50 (μM) CRL8155, human cell line CRL8155): > 10 µM; GI50 ([3]; read-out: GI50 (μM) HL60, human cell line HL60): > 10 µM; GI50 ([4]; read-out: GI50 (μM) SF539, human cell line SF539): > 10 µM; IC50 [5, 16]: 0.144 µM; IC50 ([5]; read-out: CpCDPK1 IC50): 0.14 µM; GI50 ([6]; read-out: GI50 (μM) HCC2998, human cell line HCC2998): > 10 µM |
| COc1ccc2cc(-c3nn(CC4CCNCC4)c4ncnc(N)c34)ccc2c1 [Compound 28, 3-(6-methoxynaphthalen-2-yl)-1-(piperidin-4-ylmethyl)-1H-pyrazolo[3,4-d]pyrimidin-4-amine] | > 20 | <30 | <30 | <30 | <30 | 18.8 | 739 | 58 (≈ 22.5 µg/mL) |  | Cell Toxicity CRL8155, % at 30 μM [2]: <30% at 30 μM; IC50 [7]: > 10 µM; Cell Toxicity HL60, % at 30 μM [3]: <30% at 30 μM; AUC [9]: 20.5 µM·h; Cmax [9]: 4.41 µM; Tmax [9]: 2.67 h; AUC [11]: 151 µM·h; Cmax [11]: 84.1 µM; Tmax [11]: 0.667 h; IC50 [5, 16]: 0.0023 µM; IC50 [12]: > 20 µM; solubility [13, 17]: 49 µM (≈ 19 µg/mL); solubility [13, 19]: 56 µM (≈ 21.8 µg/mL) |
| Nc1ncnc2c1c(-c1cnc3ccccc3c1)nn2CC1CCNCC1 [Compound 30, 1-(piperidin-4-ylmethyl)-3-(quinolin-3-yl)-1H-pyrazolo[3,4-d]pyrimidin-4-amine] | > 20 | <30 | <30 | <30 | <30 |  |  |  |  | Cell Toxicity CRL8155, % at 30 μM [2]: <30% at 30 μM; Cell Toxicity HL60, % at 30 μM [3]: <30% at 30 μM; IC50 [5, 16]: 0.0837 µM; IC50 [12]: > 20 µM |
| CCCOc1ccc2cc(-c3nn(CC4CCNCC4)c4ncnc(N)c34)ccc2c1 [Compound 33, 1-(piperidin-4-ylmethyl)-3-(6-propoxynaphthalen-2-yl)-1H-pyrazolo[3,4-d]pyrimidin-4-amine] |  | <30 | <30 | <30 | 30 | 21.1 | 196 |  | T at 100 μM | IC50 [7]: > 10 µM |
| CCCCOc1ccc2cc(-c3nn(CC4CCNCC4)c4ncnc(N)c34)ccc2c1 [Compound 35, 3-(6-butoxynaphthalen-2-yl)-1-(piperidin-4-ylmethyl)-1H-pyrazolo[3,4-d]pyrimidin-4-amine] |  | <30 | <30 | <30 | <30 | 31.2 | 151 | 45 (≈ 19.4 µg/mL) | 25 to 100 µM | IC50 [7]: > 10 µM; IC50 [5, 16]: 0.0044 µM |
| C=CCOc1ccc2cc(-c3nn(CC4CCNCC4)c4ncnc(N)c34)ccc2c1 [Compound 36, 3-(6-(allyloxy)naphthalen-2-yl)-1-(piperidin-4-ylmethyl)-1H-pyrazolo[3,4-d]pyrimidin-4-amine] |  | <30 | <30 | <30 | <30 | 15.7 | 146 |  | T at 100 μM | IC50 [7]: > 10 µM; AUC [9]: 1.83 µM·h; Cmax [9]: 0.59 µM; Tmax [9]: 3.67 h |
| Nc1ncnc2c1c(-c1ccc3cc(OCc4cccc(Cl)c4)ccc3c1)nn2CC1CCNCC1 [Compound 38, 3-(6-(3-chlorobenzyloxy)naphthalen-2-yl)-1-(piperidin-4-ylmethyl)-1H-pyrazolo[3,4-d]pyrimidin-4-amien] |  | <30 | <30 |  |  | 34.9 | 45.2 |  | T at 100 μM | Cell Toxicity CRL8155, % at 30 μM [2]: 98% at 30 μM; Cell Toxicity HL60, % at 30 μM [3]: 98% at 30 μM |
| CC(C)n1nc(-c2ccc3cc(OCc4ccccc4)ccc3c2)c2c(N)ncnc21 [Compound 40, 3-(6-(benzyloxy)naphthalen-2-yl)-1-isopropyl-1H-pyrazolo[3,4-d]pyrimidin-4-amine] |  |  |  |  |  | 514 | 96.3 |  | T at 100 μM |  |
| C=CCOc1ccc2cc(-c3nn(C(C)C)c4ncnc(N)c34)ccc2c1 [Compound 41, 3-(6-(allyloxy)naphthalen-2-yl)-1-isopropyl-1H-pyrazolo[3,4-d]pyrimidin-4-amine] |  | <30 | <30 |  |  | 19.2 | 36.3 | 4.4 (≈ 1.58 µg/mL) | T at 100 μM | AUC [9]: 52.9 µM·h; Cmax [9]: 13.6 µM; Tmax [9]: 1.67 h |
| CCCCOc1ccc2cc(-c3nn(C(C)C)c4ncnc(N)c34)ccc2c1 [Compound 42, 3-(6-butoxynaphthalen-2-yl)-1-isopropyl-1H-pyrazolo[3,4-d]pyrimidin-4-amine] |  |  |  |  |  | 308 | 156 | 4.4 (≈ 1.65 µg/mL) | T at 100 μM | AUC [9]: 40.6 µM·h; Cmax [9]: 10.7 µM; Tmax [9]: 2.67 h |
| CC(C)COc1ccc2cc(-c3nn(CC4CCNCC4)c4ncnc(N)c34)ccc2c1 [Compound 44, 3-(6-isobutoxynaphthalen-2-yl)-1-(piperidin-4-ylmethyl)-1H-pyrazolo[3,4-d]pyrimidin-4-amine] |  |  |  |  |  | 58.3 | 182 | 38 (≈ 16.4 µg/mL) | T at 100 μM | AUC [9]: 2.47 µM·h; Cmax [9]: 0.95 µM; Tmax [9]: 3 h; solubility [13, 17]: 47 µM (≈ 20.2 µg/mL); solubility [13, 19]: 33 µM (≈ 14.2 µg/mL) |
| CCOc1ccc2cc(-c3nc(C(C)(C)C)n4ccnc(N)c34)ccc2c1 [Compound 69, 3-tert-butyl-1-(6-ethoxynaphthalen-2-yl)imidazo[1,5-a]pyrazin-8-amine] |  | <30 | <30 |  |  | 132 | 198 | 3 (≈ 1.08 µg/mL) | T at 25 μM |  |
| Nc1ncnc2c1cnn2CC1CCNCC1 [Compound 99] | > 10 |  |  |  |  |  |  |  |  | IC50 [12]: > 10 µM |
| Nc1ncnc2c1c(-c1ccc3oc(-c4ccccc4)nc3c1)nn2CC1CCNCC1 [Compound 120] |  |  |  |  |  | 214 | 25.5 | 44 (≈ 18.7 µg/mL) | T at 25 μM |  |
| CC(C)(C)n1ncc2c(N)ncnc21 [Compound 123] | > 10 |  |  |  |  |  |  |  |  | IC50 [12]: > 10 µM |
| CC(C)(C)n1nc(-c2ccccc2)c2c(N)ncnc21 [Compound 140] | 0.636 |  |  |  |  | 399 | 337 | 22 (≈ 5.88 µg/mL) |  |  |
| NC[C@@H]1O[C@H](O[C@H]2[C@@H](O)[C@H](O[C@@H]3[C@@H](O)[C@H](N)C[C@H](N)[C@H]3O[C@H]3O[C@H](CO)[C@@H](O)[C@H](O)[C@H]3N)O[C@@H]2CO)[C@H](N)[C@@H](O)[C@@H]1O [Paromomycin, reference compound] |  |  |  |  |  |  |  |  |  | parasite burden rebound after treatment [15]: quickly rebounded; parasites in stool (qRT-PCR) at the end of treatment [15]: not detected |
